These compounds were tested against T1, human apelin receptor (Homo sapiens, UniProt P35414) (assay: Determination of agonism on the human apelin receptor by a calcium fluorescence assay (FLIPR)). Details: HEK293 cells stably transfected with human apelin receptor and Giaq protein, Fluo-4 calcium fluorescence, read-out: EC50 (APJ agonism).
T1 construct: expressed in transfected cells
T1 sequence (P35414 1-380): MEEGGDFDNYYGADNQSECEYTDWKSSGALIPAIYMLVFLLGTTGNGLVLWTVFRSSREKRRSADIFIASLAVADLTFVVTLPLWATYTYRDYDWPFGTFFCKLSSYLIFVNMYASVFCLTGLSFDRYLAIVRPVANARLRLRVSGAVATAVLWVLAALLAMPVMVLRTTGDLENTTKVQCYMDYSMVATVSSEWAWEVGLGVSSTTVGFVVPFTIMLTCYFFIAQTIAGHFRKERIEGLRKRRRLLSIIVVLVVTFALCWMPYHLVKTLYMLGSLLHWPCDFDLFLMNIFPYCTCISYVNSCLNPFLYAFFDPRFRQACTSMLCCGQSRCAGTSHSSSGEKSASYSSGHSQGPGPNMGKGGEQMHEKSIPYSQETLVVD
Type: cell-based
Procedure, shortened: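 HEK293 cells stably co-expressing human apelin receptor and promiscuous Giaq, loaded 1 h at 37 °C with Fluo-4 (4 μM) in probenecid-containing Hepes buffer, pH 7.4. Compounds, at least 7 concentrations in triplicate, added in FLIPR Tetra; peak calcium fluorescence normalized to 1 μM apelin-13 as 100% to derive EC50.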

Row | SMILES | EC50
1 | CCC(CC)n1c(Cc2ccco2)nc2cc(C(=O)NC(C)(Cc3ccccc3)C(=O)O)ccc21 (stereo not shown) [Example 2, 2-{[1-(1-Ethyl-propyl)-2-furan-2-ylmethyl-1H-benzoimidazole-5-carbonyl]-amino}-2-methyl-3-phenyl-propionic acid] | 20.1 µM
2 | CCC(CC)n1c(Cc2cccs2)nc2cc(C(=O)N[C@@H](CC(C)C)C(=O)N3CCN(C)CC3)ccc21 [Example 225, 1-(1-Ethyl-propyl)-2-thiophen-2-ylmethyl-1H-benzoimidazole-5-carboxylic acid [(S)-3-methyl-1-(4-methyl-piperazine-1-carbonyl)-butyl]-amide] | 0.775 µM
3 | CCC(CC)n1c(CC2CCCO2)nc2cc(C(=O)N[C@@H](CC(C)C)C(=O)O)ccc21 (stereo partly drawn) [Example 80, (S)-2-{[1-(1-Ethyl-propyl)-2-(tetrahydro-furan-2-ylmethyl)-1H-benzoimidazole-5-carbonyl]-amino}-4-methyl-pentanoic acid] | 1.67 µM
4 | CCC(CC)n1c(Cc2cccs2)nc2cc(C(=O)N[C@@H](CC(C)C)C(=O)N3CCC(OC(C)C)CC3)ccc21 [Example 375, 1-(1-Ethyl-propyl)-2-thiophen-2-ylmethyl-1H-benzoimidazole-5-carboxylic acid [(S)-1-(4-isopropoxy-piperidine-1-carbonyl)-3-methyl-butyl]-amide] | 2.88 µM
5 | CCC(CC)n1c(Cc2ccco2)nc2cc(C(=O)N[C@H](CC(=O)O)CC(C)C)ccc21 [Example 96, (S)-3-{[1-(1-Ethyl-propyl)-2-furan-2-ylmethyl-1H-benzoimidazole-5-carbonyl]-amino}-5-methyl-hexanoic acid] | < 0.041 µM
6 | CC(C)C[C@H](NC(=O)c1ccc2c(c1)nc(Cc1cccs1)n2C1CCCC1C)C(=O)O (single isomer, unassigned) [Example 429] | 0.891 µM
7 | C[C@@H]1CCCC[C@H]1n1c(Cc2cccs2)nc2cc(C(=O)NC(CC3CCCC3)C(=O)O)ccc21 (single isomer, unassigned) [Example 443] | 1.45 µM
8 | CCC(CC)n1c(CC2CCCC2)nc2cc(C(=O)N[C@H](CC3CCCCC3)C(=O)O)ccc21 [Example 10, (R)-3-Cyclohexyl-2-[{2-cyclopentylmethyl-1-(1-ethyl-propyl)-1H-benzoimidazole-5-carbonyl]-amino}-propionic acid] | 1.7 µM
9 | CCC(CC)n1c(Cc2cccs2)nc2cc(C(=O)N[C@@H](CC(C)C)C(=O)NC3CCN(CCc4ccc(OC)cc4)CC3)ccc21 [Example 328, 1-(1-Ethyl-propyl)-2-thiophen-2-ylmethyl-1H-benzoimidazole-5-carboxylic acid ((S)-1-{1-[2-(4-methoxy-phenyl)-ethyl]-piperidin-4-ylcarbamoyl}-3-methyl-butyl)-amide] | 1.27 µM
10 | CCC(CC)n1c(CC2CCCCC2)nc2cc(C(=O)N[C@@H](CC(C)C)C(=O)O)ccc21 [Example 120, (S)-2-{[2-Cyclohexylmethyl-1-(1-ethyl-propyl)-1H-benzoimidazole-5-carbonyl]-amino}-4-methyl-pentanoic acid] | 24.1 µM
11 | CCC(CC)n1c(Cc2cccs2)nc2cc(C(=O)NC(CC(=O)O)CC3CCCCC3)ccc21 (single isomer, unassigned) [Example 454] | 0.126 µM
12 | CCC(CC)n1c(Cc2cccs2)nc2cc(C(=O)N[C@H](CCC(=O)O)[C@@H](C)CC)ccc21 [Example 71, (4R,5S)-4-{[1-(1-Ethyl-propyl)-2-thiophen-2-ylmethyl-1H-benzoimidazole-5-carbonyl]-amino}-5-methyl-heptanoic acid] | 0.073 µM
13 | CCC(CC)n1c(Cc2cccs2)nc2cc(C(=O)N[C@@H](CC(C)C)C(=O)NC3CCCC3)ccc21 [Example 237, 1-(1-Ethyl-propyl)-2-thiophen-2-ylmethyl-1H-benzoimidazole-5-carboxylic acid ((S)-1-cyclopentylcarbamoyl-3-methyl-butyl)-amide] | 2.48 µM
14 | CCC(CC)n1c(Cc2cccs2)nc2cc(C(=O)N[C@@H](CC(C)C)C(=O)NCc3cccs3)ccc21 [Example 222, 1-(1-Ethyl-propyl)-2-thiophen-2-ylmethyl-1H-benzoimidazole-5-carboxylic acid {(S)-3-methyl-1-[(thiophen-2-ylmethyl)-carbamoyl]-butyl}-amide] | 3.99 µM
15 | CCC(CC)n1c(Cc2cccs2)nc2cc(C(=O)N[C@@H](CC(C)C)C(=O)N3CCC[C@H]3C(=O)O)ccc21 [Example 409, (S)-1-((S)-2-{[1-(1-Ethyl-propyl)-2-thiophen-2-ylmethyl-1H-benzoimidazole-5-carbonyl]-amino}-4-methyl-pentanoyl)-pyrrolidine-2-carboxylic acid] | 0.491 µM
16 | CC(C)C[C@H](NC(=O)c1ccc2c(c1)nc(Cc1cccs1)n2CC1CCCCC1)C(=O)O [Example 83, (S)-2-[(1-Cyclohexylmethyl-2-thiophen-2-ylmethyl-1H-benzoimidazole-5-carbonyl)-amino]-4-methyl-pentanoic acid] | 18.2 µM
17 | CCC(CC)n1c(Cc2cccs2)nc2cc(C(=O)N[C@@H](CO)CCSC)ccc21 [Example 195, 1-(1-Ethyl-propyl)-2-thiophen-2-ylmethyl-1H-benzoimidazole-5-carboxylic acid ((R)-1-hydroxymethyl-3-methylsulfanyl-propyl)-amide] | 15.2 µM
18 | CCC(CC)n1c(Cc2cccs2)nc2cc(C(=O)N[C@@H](CC(C)C)C(=O)NCC3CCN(C(C)c4ccccc4)C3)ccc21 (stereo partly drawn) [Example 353, 1-(1-Ethyl-propyl)-2-thiophen-2-ylmethyl-1H-benzoimidazole-5-carboxylic acid ((S)-3-methyl-1-{[1-(1-phenyl-ethyl)-pyrrolidin-3-ylmethyl]-carbamoyl}-butyl)-amide] | 0.787 µM
19 | CCC(CC)n1c(Cc2cccs2)nc2cc(C(=O)N[C@@H](CC(C)C)C(=O)NCc3ccc(OC)cc3)ccc21 [Example 236, 1-(1-Ethyl-propyl)-2-thiophen-2-ylmethyl-1H-benzoimidazole-5-carboxylic acid [(S)-1-(4-methoxy-benzylcarbamoyl)-3-methyl-butyl]-amide] | 3.87 µM
20 | CCC(CC)n1c(Cc2cccs2)nc2cc(C(=O)N[C@@H](CC(C)C)C(=O)NCC3CCOCC3)ccc21 [Example 369, 1-(1-Ethyl-propyl)-2-thiophen-2-ylmethyl-1H-benzoimidazole-5-carboxylic acid {(S)-3-methyl-1-[(tetrahydro-pyran-4-ylmethyl)-carbamoyl]-butyl}-amide] | 2.21 µM
21 | C[C@@H]1CCCC[C@H]1n1c(Cc2cccs2)nc2cc(C(=O)NC(CC3CCC(C)(C)CC3)C(=O)O)ccc21 (stereo partly drawn) [Example 33, 3-(4,4-Dimethyl-cyclohexyl)-2-{[1-((1R,2R)-2-methyl-cyclohexyl)-2-thiophen-2-ylmethyl-1H-benzoimidazole-5-carbonyl]-amino}-propionic acid] | 3.21 µM
22 | CCC(CC)n1c(Cc2cccs2)nc2cc(C(=O)N[C@@H](CC(C)C)C(=O)Nc3cccc(N4CCOCC4)c3)ccc21 [Example 333, 1-(1-Ethyl-propyl)-2-thiophen-2-ylmethyl-1H-benzoimidazole-5-carboxylic acid [(S)-3-methyl-1-(3-morpholin-4-yl-phenylcarbamoyl)-butyl]-amide] | 27.3 µM
23 | CCC(CC)n1c(Cc2cccs2)nc2cc(C(=O)N[C@@H](CC(C)C)C(=O)NCc3cccc(N(C)C)c3)ccc21 [Example 252, 1-(1-Ethyl-propyl)-2-thiophen-2-ylmethyl-1H-benzoimidazole-5-carboxylic acid [(S)-1-(3-dimethylamino-benzylcarbamoyl)-3-methyl-butyl]-amide] | 6.99 µM
24 | CCC(CC)n1c(Cc2cccs2)nc2cc(C(=O)N[C@@H](CC(C)C)C(=O)N3CCC(OC)CC3)ccc21 [Example 373, 1-(1-Ethyl-propyl)-2-thiophen-2-ylmethyl-1H-benzoimidazole-5-carboxylic acid [(S)-1-(4-methoxy-piperidine-1-carbonyl)-3-methyl-butyl]-amide] | 1.84 µM
25 | CCC(CC)n1c(Cc2cccs2)nc2cc(C(=O)N[C@@H](CC(C)C)C(=O)N3CCC(N(C)Cc4ccccc4)CC3)ccc21 [Example 345, 1-(1-Ethyl-propyl)-2-thiophen-2-ylmethyl-1H-benzoimidazole-5-carboxylic acid {(S)-1-[4-(benzyl-methyl-amino)-piperidine-1-carbonyl]-3-methyl-butyl}-amide] | 1.67 µM
26 | CCC(CC)n1c(Cc2cccs2)nc2cc(C(=O)N[C@@H](CC(C)C)C(=O)NC(C)CN(C)C)ccc21 (stereo partly drawn) [Example 243, 1-(1-Ethyl-propyl)-2-thiophen-2-ylmethyl-1H-benzoimidazole-5-carboxylic acid [(S)-1-(2-dimethylamino-1-methyl-ethylcarbamoyl)-3-methyl-butyl]-amide] | 0.771 µM
27 | CCC(CC)n1c(Cc2cccs2)nc2cc(C(=O)N[C@@H](CC(C)C)C(=O)Nc3ccc(N(CC)CC)cc3)ccc21 [Example 242, 1-(1-Ethyl-propyl)-2-thiophen-2-ylmethyl-1H-benzoimidazole-5-carboxylic acid [(S)-1-(4-diethylamino-phenylcarbamoyl)-3-methyl-butyl]-amide] | 5.93 µM
28 | CCC(CC)n1c(Cc2cccs2)nc2cc(C(=O)N[C@@H](CC3CCC3)C(=O)O)ccc21 [Example 22, (S)-3-Cyclobutyl-2-{[1-(1-ethyl-propyl)-2-thiophen-2-ylmethyl-1H-benzoimidazole-5-carbonyl]-amino}-propionic acid] | 0.08 µM
